The record followed here is paper PMC6828666, “Discovery of holoenzyme-disrupting chemicals as substrate-selective CK2 inhibitors” (Scientific Reports, 2019).

One assay concerns the target CK2α (Homo sapiens, UniProt P68400). As to the kind of experiment: SPR binding studies on captured GST-CK2α. The following applies: surface plasmon resonance. The method, then: SPR competition studies (Fig. 2i) were performed using a BIAcore 3000 instrument (BIAcore AB) equipped with a CM5 sensor chip (BIAcore AB). After activation with a solution of N-hydroxysuccinimide and N-ethyl-N-(dimethylaminopropyl)carbodiimide hydrochloride (coupling solution BIAcore AB), the anti-GST antibody diluted at 30 μg/ml in 10 mM acetate buffer pH 5.0 was injected at a flow rate of 5 μL/min for 7 min. All the surfaces were blocked with a 3 min injection at 10 μL/min of 1 M ethanolamine, pH 8.0. GST-CK2α (50 μg/ml) was immobilized on the surface at a flow rate of 5 μL/min in HBS (10 mM Hepes pH 7.3, 0.15 M NaCl, 3 mM EDTA, 0.005% polysorbate 20). MBP-CK2β diluted at 50 μg/ml in HBS buffer was injected over the surface at a flow rate of 5 μL/min in presence of various compound 1 concentration. Regeneration of the surfaces was achieved by injection of 10 mM glycine-HCl pH 2.2. SPR binding studies (Supplementary Fig. S7) were performed using a Reichert SR7000DC instrument optical biosensor (Reichert Technologies) equipped with a CMD500m sensor chip obtained from XanTec Bioanalytics. CK2α was immobilized by a capturing approach using a monoclonal anti-GST antibody (27 kDa, Clone GST-R 6G9 produced in rat, SAB4200055 Sigma Aldrich). Prior to use, the anti-GST antibodies were purified twice by micro dialysis at 4 °C (Membrane: dialysis tubing benzoylated, 9 mm, D2272-5FT) in 10 mM sodium acetate, pH = 5. Anti-GST antibodies were immobilized using amine-coupling chemistry at 12 °C. The surfaces of all two flow cells were activated for 7 min with a 1:1 mixture of 0.1 M NHS (N-hydroxysuccinimide) and 0.1 M EDC (3-(N,N-dimethylamino) propyl-N-ethylcarbodiimide) at a flow rate of 10 μL/min. The antibody at a concentration of 30 μg/mL in 10 mM sodium acetate, pH 5.0, was immobilized at a density of 2000 RU on flow cell 2; flow cell 1 was left blank to serve as a reference surface. All the surfaces were blocked with a 3 min injection at 10 μL/min of 1 M ethanolamine, pH 8.0. GST tagged CK2α at a concentration of 50 μg/mL in 10 mM HEPES, 150 mM NaCl, 3 mM EDTA, 0.005% (v/v) polysorbate 20, pH = 7.4 was captured at a density of 900 RU on flow cell 2. In order to collect kinetic binding data, analytes in 10 mM HEPES, 150 mM NaCl, 3 mM EDTA, 0.005% (v/v) polysorbate 20, 1% DMSO (v/v), 100 μM ATP, pH = 7.4 were injected over the two flow cells at concentrations of 50, 25, 12.5, 6.25, 3.12, 1.56 μM at a flow rate of 25 μL/min and at a temperature of 25 °C. The complex was allowed to associate and dissociate for 120 s. Duplicate injections (in random order) of each sample and a buffer blank were flowed over the two surfaces. Affinities were obtained after treatments (DMSO calibration, blank and references subtractions) using the software Scrubber 2.0c.
Fig. S7. Binding kinetics of compounds 2-6 by surface plasmon resonance. For each compound, sensorgrams (black line) and global fits (orange line) are depicted with the corresponding chemical structure and the fitted kinetics parameters. Experiments show representative data of two identical repeats.
Background: Surface plasmon resonance follows binding to a sensor surface in real time, without labels.

The test system of assay [1] is MDA-MB231 cells. Description: Scratch wound cell migration assay. The class given is cell-based. The conditions noted are these: MDA-MB231, 40 μM. The method, then: Cells seeded at equal density were allowed to grow to confluence overnight. The Essen Bioscience WoundMaker^TM, an accessory for the IncuCyte Zoom®, was utilized to create Scratch-wounds of a standardized width (~600 μm). Cells were treated with the indicated inhibitors and imaged every 15 min for 44 h and the percentage of wound confluence was analyzed.
Fig. S10. […] MCF10A cells (a) or MDA-MB231 cells (b) were allowed to grow to confluence overnight. Wounds of a standardized width were created using the Essen Bioscience WoundMakerTM. […] Wound closure was monitored using the Essen IncuCyte Zoom live-cell microscopy incubator. Images were captured every 2 h for the duration of the experiment. Error bars represent the SEM of two biological replicates derived from technical triplicates.

Assay [2] has as its system MDA-MB231 cells. As to the kind of experiment: Apoptosis by annexin V/propidium iodide staining. The format is cell-based. The conditions noted are these: MDA-MB231, 40 μM, AV/PI staining. The method, then:
Cells plated at equal density (2 × 10^4 cells/well) were treated with the indicated inhibitors in cell culture medium containing 0.5 μg/ml Propidium iodide (Sigma-Aldrich). Images of PI-stained red fluorescent cells were captured every 3 h for the duration of the experiment. For apoptosis detection, 50 μL/mL fluorochrome-conjugated Annexin V (Molecular Probes) was added to the medium together with Propidium iodide and apoptotic cell numbers were calculated.
Fig. S12. […] Cell viability was assessed by Annexin V staining (a) or PI staining (b) using the Essen IncuCyte Zoom live-cell microscopy incubator. Images were captured every hour for the duration of the experiment. Error bars represent the SEM of two biological replicates derived from technical triplicates.

CK2α, sequence (P68400 whole entry): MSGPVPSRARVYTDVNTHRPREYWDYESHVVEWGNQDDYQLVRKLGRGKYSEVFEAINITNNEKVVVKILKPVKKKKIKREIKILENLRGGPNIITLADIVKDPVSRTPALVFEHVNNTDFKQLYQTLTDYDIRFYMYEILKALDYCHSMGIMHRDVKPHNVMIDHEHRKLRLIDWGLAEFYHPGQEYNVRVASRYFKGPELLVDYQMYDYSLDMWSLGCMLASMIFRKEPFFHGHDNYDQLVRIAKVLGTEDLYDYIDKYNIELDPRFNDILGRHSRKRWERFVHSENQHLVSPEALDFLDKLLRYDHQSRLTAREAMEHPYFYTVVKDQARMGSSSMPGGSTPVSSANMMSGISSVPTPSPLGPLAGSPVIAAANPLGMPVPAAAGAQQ

What is called Kd is the equilibrium constant for the complex coming apart. Higher therefore signals weaker binding. With `O=C(OCC1CCN(CCNS(=O)(=O)c2ccccc2)CC1)c1c[nH]c2ccccc12` [Compound 4, (1-(2-(Phenylsulfonamido)ethyl)piperidin-4-yl)methyl 1H-indole-3-carboxylate], binding at CK2α was characterised by a dissociation constant (Kd) of 41 ± 5 µM.
For the compound `CS(=O)(=O)NCCN1CCC(COC(=O)c2c[nH]c3ccccc23)CC1` [Compound 3, (1-(2-(Methylsulfonamido)ethyl)piperidin-4-yl)methyl 1H-indole-3-carboxylate], at CK2α, the equilibrium dissociation constant (Kd) came to 54 ± 5 µM. The “cell migration / wound closure” value in the assay with MDA-MB231 cells [1] is recorded as “not affected”. Moreover, the induction of apoptosis result in the assay with MDA-MB231 cells [2] is listed as “unable to induce apoptosis”.
`COc1[nH]c2ccc(F)cc2c1C(=O)OCC1CCN(CCNS(=O)(=O)c2ccccc2)CC1.Cl` [Compound 6]: the “cell migration / wound closure” value with MDA-MB231 cells [1] is listed as “completely abrogated”. The “exposure time after which apoptosis was detected” value in the assay on MDA-MB231 cells [2] is reported as 8 h.
